Among the test systems are 786-0 renal; BT-549 breast; CCRF-CEM leukemia; HCC-2998 colon; HCT-116 colon; HOP-62 NSCLC; HT29 colon; MDA-MB-231 breast; SNB-75 CNS; UACC-257 melanoma.
Common to all, as to assay: inhibition of tumour cell growth, NCI panel, 48 h

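Five compound concentrations were applied to cells in 96-well plates for 48 hours; endpoints were derived by simple linear interpolation of the resulting dose-response curve. TGI denotes the concentration required for complete inhibition of growth.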 Where a SMILES comes first, the peptide text is derived from it. Side-chain parts run from the residue outwards. The star is where a group is joined. Cbz = O=C(OCc1ccccc1)*; Boc = CC(C)(C)OC(=O)*

For the compound `CCCCCCCCC[C@@H]1C[C@@H]2CCC3C(C(=O)OCCCCNC(=O)OCc4ccccc4)=C(C)NC(=N1)N32` (stereo not given in full), the TGI with 786-0 renal amounted to 3.2 µM; with BT-549 breast, 12.6 µM; in the assay with CCRF-CEM leukemia, 8.93 µM; with HCC-2998 colon it was 11.1 µM; in the assay with HCT-116 colon it was 10 µM; with HOP-62 NSCLC it was 10.3 µM. In addition, the TGI with HT29 colon worked out at 12.9 µM; in the assay on MDA-MB-231 breast, 6.09 µM; in the assay on SNB-75 CNS it was 16.9 µM; in the assay with UACC-257 melanoma, 12.2 µM.

As for `O=C1CSC(c2c(O)ccc3ccccc23)N1n1c(=S)[nH]nc(/C=C/c2c(O)ccc3ccccc23)c1=O` (stereo not given), the TGI with 786-0 renal came to 14.5 µM; in the assay with BT-549 breast, 23.5 µM; with CCRF-CEM leukemia, 3.04 µM; with HCC-2998 colon, 22 µM; in the assay with HCT-116 colon it was 16.6 µM; in the assay on HOP-62 NSCLC it was 22 µM. Further, the TGI in the assay on HT29 colon came out at 36.6 µM; with MDA-MB-231 breast it was 20.7 µM; with SNB-75 CNS, 11.4 µM; with UACC-257 melanoma, 14.3 µM.

For the compound `COc1ccc2c(c1)-c1c(c3ccccc3n1CCN1CCOCC1)CC2`, the TGI with 786-0 renal turned out to be 54.1 µM; in the assay on BT-549 breast, 63.5 µM; in the assay with CCRF-CEM leukemia it was 85.8 µM; with HCC-2998 colon it was 34.3 µM; in the assay on HCT-116 colon it was 76.8 µM; in the assay on HOP-62 NSCLC, 74.8 µM. Besides, the TGI is 25.9 µM in the assay with HT29 colon, 90.9 µM with MDA-MB-231 breast, 49 µM in the assay with SNB-75 CNS and over 100 µM in the assay on UACC-257 melanoma.

On to `CC(=N\N=C\c1ccccn1)/C(C)=N/N=C/c1ccccn1`, for which the TGI in the assay on 786-0 renal, in the assay with BT-549 breast, in the assay on CCRF-CEM leukemia, in the assay with HCC-2998 colon, in the assay on HCT-116 colon and with HOP-62 NSCLC was over 100 µM throughout. The TGI in the assay with HT29 colon, in the assay with MDA-MB-231 breast, in the assay on SNB-75 CNS and with UACC-257 melanoma was over 100 µM each time.

In the case of `Cc1cc2nc(NS(=O)(=O)c3cc(C)c(Cl)cc3S)[nH]c2cc1C`, the TGI is over 100 µM in the assay on 786-0 renal; over 100 µM in the assay with BT-549 breast; 81.8 µM with CCRF-CEM leukemia; over 100 µM in the assay with HCC-2998 colon; over 100 µM in the assay with HCT-116 colon; over 100 µM in the assay with HOP-62 NSCLC. In addition, the TGI in the assay with HT29 colon, in the assay on MDA-MB-231 breast, in the assay on SNB-75 CNS and in the assay on UACC-257 melanoma was over 100 µM each time.

As to `COc1cc(C2c3cc4c(cc3OC(N3CCOCC3)C2C)OCO4)cc(OC)c1OC` (stereo not given), the TGI in the assay on 786-0 renal is 28.6 µM; with BT-549 breast, 65.8 µM; in the assay on CCRF-CEM leukemia, over 100 µM; in the assay on HCC-2998 colon it was 4.35 µM; in the assay with HCT-116 colon, 12.7 µM; in the assay on HOP-62 NSCLC it was 52.8 µM. Moreover, the TGI was 7.51 µM in the assay on HT29 colon, 37.3 µM with MDA-MB-231 breast, over 48.2 µM with SNB-75 CNS and over 59.7 µM in the assay with UACC-257 melanoma.

Take `CC(C)CC(NC(=O)OCc1ccccc1)C(=O)NCCCCC(NC(=O)C(CCCCNC(=O)C(CC(C)C)NC(=O)OCc1ccccc1)NC(=O)C(CCCCNC(=O)C(CC(C)C)NC(=O)OCc1ccccc1)NC(=O)C(CCCCNC(=O)C(CC(C)C)NC(=O)OCc1ccccc1)NC(=O)OC(C)(C)C)C(=O)O` (stereo not given) (Boc-K([Leu-Cbz])K([Leu-Cbz])K([Leu-Cbz])K([Leu-Cbz])-OH; configuration not given here): the TGI with 786-0 renal, in the assay with BT-549 breast, in the assay with CCRF-CEM leukemia, with HCC-2998 colon, in the assay on HCT-116 colon and with HOP-62 NSCLC was over 25 µM throughout. In addition, the TGI with HT29 colon, in the assay with MDA-MB-231 breast, with SNB-75 CNS and in the assay on UACC-257 melanoma was over 25 µM each time.

For the compound `CCOc1ccc(-n2c(=O)n3c(Nc4ccc(Cl)cc4)nc4c(c(=O)n(C)c(=O)n4C)n3c2=O)cc1`, the TGI is over 100 µM in the assay on 786-0 renal; 64.3 µM in the assay on BT-549 breast; 52.9 µM with CCRF-CEM leukemia; 34.4 µM in the assay with HCC-2998 colon; 40.2 µM in the assay with HCT-116 colon; over 100 µM in the assay on HOP-62 NSCLC. For the same compound, the TGI with HT29 colon was over 100 µM; in the assay with MDA-MB-231 breast it was 35.1 µM; with SNB-75 CNS, 69.1 µM; in the assay on UACC-257 melanoma, 60.4 µM.

For `O=C(O)[C@H]1NC[C@@H]2ON=C(Br)[C@@H]21`, the TGI in the assay with 786-0 renal, in the assay on BT-549 breast, in the assay with CCRF-CEM leukemia, in the assay on HCC-2998 colon, in the assay with HCT-116 colon and in the assay with HOP-62 NSCLC was over 100 µM throughout. For the same compound, the TGI with HT29 colon, in the assay with MDA-MB-231 breast, in the assay with SNB-75 CNS and with UACC-257 melanoma was over 100 µM throughout.

For `COc1ccc(-c2cc(-c3ccc(Nc4ccnc5cc(C(F)(F)F)ccc45)cc3)[nH]c(=O)c2C#N)cc1`, the TGI is over 100 µM in the assay with 786-0 renal; over 94.9 µM with BT-549 breast; over 100 µM in the assay on CCRF-CEM leukemia; over 100 µM in the assay on HCC-2998 colon; over 100 µM in the assay with HCT-116 colon; over 41.1 µM with HOP-62 NSCLC. Also, the TGI with HT29 colon is over 80.4 µM; in the assay with MDA-MB-231 breast, over 82.9 µM; with SNB-75 CNS, 62.2 µM; in the assay with UACC-257 melanoma, over 100 µM.

Take `CCOC(=O)c1ccc2c(=O)n3c(C(=O)OCC)ccc3c(=O)n12`: the TGI in the assay on 786-0 renal, with BT-549 breast, in the assay on CCRF-CEM leukemia, in the assay with HCC-2998 colon, in the assay on HCT-116 colon and in the assay on HOP-62 NSCLC was over 100 µM throughout. The TGI in the assay with HT29 colon, with MDA-MB-231 breast, in the assay with SNB-75 CNS and with UACC-257 melanoma was over 100 µM each time.

As to `OC(C1CCCC1=N/N=C1/CCCC1C(O)(C(F)(F)Cl)C(F)(F)Cl)(C(F)(F)Cl)C(F)(F)Cl` (stereo not given), the TGI in the assay with 786-0 renal, in the assay on BT-549 breast, in the assay with CCRF-CEM leukemia, in the assay with HCC-2998 colon, in the assay with HCT-116 colon and with HOP-62 NSCLC was over 10 µM each time. Besides, the TGI in the assay on HT29 colon, with MDA-MB-231 breast, in the assay on SNB-75 CNS and with UACC-257 melanoma was over 10 µM in each case.

For `Nc1ccc(S(=O)(=O)c2ccc(N=[N+]([O-])c3ccc(S(=O)(=O)c4ccc(N)cc4)cc3)cc2)cc1`, the TGI in the assay on 786-0 renal is 60.3 µM; with BT-549 breast, over 65.6 µM; with CCRF-CEM leukemia, over 100 µM; with HCC-2998 colon, over 100 µM; with HCT-116 colon, over 100 µM; with HOP-62 NSCLC, over 54.3 µM. Further, the TGI in the assay on HT29 colon was over 100 µM; in the assay on MDA-MB-231 breast, over 78.1 µM; in the assay on SNB-75 CNS, 37.1 µM; in the assay with UACC-257 melanoma it was over 100 µM.

With `CC(Nc1cc(=O)n(C)c(=O)[nH]1)c1ccccc1` (stereo not given), the TGI in the assay with 786-0 renal, with BT-549 breast, with CCRF-CEM leukemia, with HCC-2998 colon, with HCT-116 colon and in the assay with HOP-62 NSCLC was over 100 µM throughout. For the same compound, the TGI in the assay with HT29 colon, in the assay with MDA-MB-231 breast, in the assay with SNB-75 CNS and with UACC-257 melanoma was over 100 µM in each case.

For `CC(=O)C1C(=O)C(=O)N(c2ccc([N+](=O)[O-])cc2Cl)C1=O` (stereo not given), the TGI in the assay on 786-0 renal, in the assay on BT-549 breast, in the assay on CCRF-CEM leukemia, in the assay with HCC-2998 colon, with HCT-116 colon and in the assay on HOP-62 NSCLC was over 100 µM throughout. Further, the TGI with HT29 colon, in the assay on MDA-MB-231 breast, with SNB-75 CNS and in the assay on UACC-257 melanoma was over 100 µM each time.

Take `COC(=O)C1=C2Nc3ccccc3C23CCN2C(O)C4(CC5CC67CCOC6CCN6CCC8(c9cccc(OC)c9N(C4)C58O)C67)C4OCCC4(C1)C23` (stereo not given): the TGI is 50.5 µM with 786-0 renal; over 100 µM with BT-549 breast; over 100 µM in the assay with CCRF-CEM leukemia; over 100 µM with HCC-2998 colon; over 100 µM in the assay with HCT-116 colon; over 100 µM with HOP-62 NSCLC. For the same compound, the TGI in the assay with HT29 colon is over 100 µM; with MDA-MB-231 breast it was 61.3 µM; in the assay with SNB-75 CNS it was 68.3 µM; with UACC-257 melanoma it was over 100 µM.

`COC(=O)C1(Cc2ccc3c(c2)CCC3)Cc2cc3c(cc2C1=O)CCC3` (stereo not given): the TGI is over 46.4 µM in the assay with 786-0 renal; 39.2 µM in the assay with BT-549 breast; over 46.4 µM with CCRF-CEM leukemia; 38.1 µM with HCC-2998 colon; over 46.4 µM in the assay with HCT-116 colon; over 46.4 µM in the assay with HOP-62 NSCLC. Moreover, the TGI in the assay with HT29 colon, with MDA-MB-231 breast, with SNB-75 CNS and in the assay with UACC-257 melanoma was over 46.4 µM in each case.

Take `CC(C)=CCC[C@@H](C)C1=C(O)C(Nc2ccccc2F)=C(C)C(=O)C1=O`: the TGI in the assay on 786-0 renal was over 100 µM; in the assay on BT-549 breast it was over 79.7 µM; in the assay with CCRF-CEM leukemia it was 5.86 µM; in the assay with HCC-2998 colon, over 100 µM; in the assay on HCT-116 colon, 47.6 µM; with HOP-62 NSCLC, over 55.7 µM. Besides, the TGI in the assay with HT29 colon is over 100 µM; in the assay on MDA-MB-231 breast, over 100 µM; in the assay with SNB-75 CNS, over 78.8 µM; in the assay on UACC-257 melanoma, over 100 µM.

These data come from PubChem BioAssay (NCI).
